Data from the Kinase Knowledgebase extract (Sharma et al. 2016).
pIC50, pKi: −log10 of the molar value.

target: CDK2 (UniProt P24941); assay: Enzyme Assay; details: not given

Question: `CN1C(=O)COc2ccc(-c3ccnc(Nc4cccc(S(N)(=O)=O)c4)n3)cc21` was tested. Which pKi did it give?
Answer: The pKi was > 6.00.

Question: How did the pIC50 turn out when `CC(=O)Nc1ncc(SCCc2ccccc2)s1` was run?
Answer: The pIC50 was < 6.00.

Question: With `CCCCOc1cc(NC(=O)Nc2ccccc2)nc(N)c1C(=O)c1c(F)cccc1F` as the compound, how does the pIC50 read?
Answer: The pIC50 was 4.00.

Question: How did the pIC50 turn out when `CCCCOc1cc(Nc2ccc(S(=O)(=O)N(C)C)cc2)nc(N)c1C(=O)c1c(F)cccc1F` was run?
Answer: The pIC50 was 6.21.

Question: With `O=C(NCCOC(=O)Nc1ccc(Cl)cc1)Nc1cccc(C(F)(F)F)c1` as the compound, how does the pIC50 read?
Answer: Its pIC50 is < 4.52.

Question: With `CCn1c(-c2nonc2N)nc2cnc(Oc3cccc(C(C)=O)c3)cc21` as the compound, how does the pIC50 read?
Answer: Its pIC50 is 5.22.

Question: How did the pIC50 turn out when `Cc1n[nH]c2c(N/C=C/C(C)C)ncnc12` was run?
Answer: The pIC50 was 4.36.

Question: `CCCCOc1c(C(=O)OC)cnc2[nH]ncc12` was tested. Which pIC50 did it give?
Answer: Its pIC50 is < 6.00.

Question: `COC(=O)[C@@]1(O)C[C@H]2O[C@]1(C)n1c3ccccc3c3c4c(c5c6ccccc6n2c5c31)C(=O)N[C@H]4CCCCCCC[C@@H]1NC(=O)c2c1c1c3ccccc3n3c1c1c2c2ccccc2n1[C@H]1C[C@](O)(C(=O)OC)[C@]3(C)O1` was tested. Which pIC50 did it give?
Answer: Its pIC50 is 3.92.

Question: How did the pIC50 turn out when `O=C1Nc2ccc3c(c2/C1=C/c1[nH]cc(C(=O)N2CCCCC2)c1-c1ccccc1)CCOS3(=O)=O` was run?
Answer: The pIC50 was 5.73.

Question: How did the pIC50 turn out when `CCn1c(-c2nonc2N)nc2cnc(Oc3ccc(NC(C)=O)cc3)cc21` was run?
Answer: The pIC50 was 5.00.

Question: How did the pIC50 turn out when `Cc1nc[nH]c1/C=C1\C(=O)Nc2ncnc(N3CCN(C)CC3)c21` was run?
Answer: Its pIC50 is 8.00.

Question: `CN(C)CC(O)COc1ccc(Nc2cc(Nc3ccccc3)ncn2)cc1` (configuration not stated) was tested. Which pIC50 did it give?
Answer: Its pIC50 is < 4.00.

Question: `CS(=O)(=O)Nc1ccc(N/C=C2\C(=O)Nc3ccccc32)cc1` was tested. Which pIC50 did it give?
Answer: The pIC50 was 5.32.

Question: How did the pIC50 turn out when `CCCCOc1cc(NC(=O)c2ccccc2)nc(N)c1C(=O)c1c(F)cccc1F` was run?
Answer: The pIC50 was 4.00.

Question: `CCCCOc1cc(N)nc(N)c1C(=O)c1c(F)cccc1F` was tested. Which pIC50 did it give?
Answer: Its pIC50 is 5.88.

Question: How did the pKi turn out when `N#Cc1cccc(Nc2nnc3ccc(Nc4ccccc4)nn23)c1` was run?
Answer: Its pKi is > 5.70.

Question: How did the pIC50 turn out when `Ic1cnc2c(NCCc3cccnc3)nc(-c3ccccc3)cn12` was run?
Answer: The pIC50 was 6.28.

Question: `COc1cccc(Nc2nnc3ccc(OC)nn23)c1` was tested. Which pKi did it give?
Answer: The pKi was > 5.70.

Question: With `Fc1ccc(Nc2nccc(-c3c[nH]c4ccccc34)n2)cc1` as the compound, how does the pIC50 read?
Answer: Its pIC50 is < 4.00.

Question: How did the pIC50 turn out when `Cn1cc(-c2cnn3c(N)c(-c4ccoc4)c(C4CCCNC4)nc23)cn1` (configuration not stated) was run?
Answer: The pIC50 was 5.64.

Question: `COc1ccc(-c2[nH]nc3c2C(=O)c2c(NC(C)=O)cccc2-3)cc1` was tested. Which pIC50 did it give?
Answer: Its pIC50 is 6.57.

Question: With `CC(=O)N[C@H]1CC[C@H](Nc2nc(NCc3ccc(-c4ccsc4)cc3)c3ncn(C(C)C)c3n2)CC1` as the compound, how does the pIC50 read?
Answer: Its pIC50 is 6.10.

Question: `CC(C(=O)Nc1cc(C2CC2)[nH]n1)c1ccc(N2CCCS2(=O)=O)cc1` (configuration not stated) was tested. Which pIC50 did it give?
Answer: Its pIC50 is 7.89.

Question: How did the pIC50 turn out when `COc1ccc(CCNc2nc(N[C@H]3CC[C@H](N)CC3)nc3c2ncn3C2CCCC2)cc1` was run?
Answer: Its pIC50 is 7.00.

Question: `O=C1NCCCCCNc2ccnc(n2)Nc2cccc1c2` was tested. Which pIC50 did it give?
Answer: Its pIC50 is < 5.00.

Question: With `Nc1nc(Nc2cccnc2)nn1-c1ccc2ccccc2n1` as the compound, how does the pIC50 read?
Answer: The pIC50 was 6.40.

Question: `CCc1n[nH]c2c(N/C=C/C(C)C)ncnc12` was tested. Which pIC50 did it give?
Answer: The pIC50 was 4.39.

Question: With `CC(C)n1cnc2c(NCc3ccc(-c4ccsc4)cc3)nc(N[C@H]3CC[C@H](N)CC3)nc21` as the compound, how does the pIC50 read?
Answer: Its pIC50 is 6.30.

Question: How did the pIC50 turn out when `CCc1cnc(CSc2cnc(NC(=O)c3ccccc3)s2)o1` was run?
Answer: Its pIC50 is > 4.30.

Question: `CN(C)CC(O)COc1ccc(Nc2cc(Nc3ccccc3F)ncn2)cc1` (configuration not stated) was tested. Which pIC50 did it give?
Answer: The pIC50 was < 4.00.

Question: With `CON=C1/C(=C2/C(=O)Nc3cc(Br)ccc32)Nc2ccccc21` as the compound, how does the pIC50 read?
Answer: The pIC50 was 4.82.

Question: How did the pIC50 turn out when `O=c1c(Br)cc2cnc(Nc3ccc(N4CCNCC4)cc3)nc2n1C1CCCC1` was run?
Answer: The pIC50 was 7.37.

Question: How did the pIC50 turn out when `COc1ccc(Nc2nccc(-c3c[nH]c4ccccc34)n2)cn1` was run?
Answer: The pIC50 was 5.59.

Question: `C[C@H](C(=O)Nc1cc(C2CC2)[nH]n1)c1ccc(N2CCCC2)cc1` was tested. Which pIC50 did it give?
Answer: Its pIC50 is 7.10.

Question: `O=C(O)c1cccc(C(=O)c2ccccn2)c1` was tested. Which pIC50 did it give?
Answer: The pIC50 was < 4.52.

Question: `COc1cc(NC(=O)c2cccc(SCc3cc(Nc4ccccc4)n[nH]3)c2)cc(OC)c1OC` was tested. Which pKi did it give?
Answer: Its pKi is < 4.00.

Question: `Cc1ccc(N=Nc2c(N)n[nH]c2N)cc1` was tested. Which pIC50 did it give?
Answer: Its pIC50 is 4.00.

Question: `Clc1cc(Cl)cc(Nc2nc(OCC3CCCCC3)c3nc[nH]c3n2)c1` was tested. Which pIC50 did it give?
Answer: The pIC50 was 4.92.

same assay, conditions: concentration not given here

Question: For `O=C(Nc1cccc(C(=O)c2ccc3c(/C=C/c4ccccc4)n[nH]c3c2)c1)c1ccccc1`, which inhibition is on record?
Answer: Its inhibition is 0%.

Question: Which inhibition does the source give for `O=C(Nc1cccc(Oc2ccc3c(/C=C/c4ccccc4)n[nH]c3c2)c1)c1ccccc1` here?
Answer: Its inhibition is 0%.

Question: How did the inhibition turn out when `Cc1c(C(=O)c2sc(Nc3ccc(N4CCOCC4)cc3)nc2N)ncn1C` was run?
Answer: The inhibition was 0%.
